Experimental data taken from patent publication US20150105252A1, “SUBSTITUTED PYRAZOLES AS HERBICIDES” (E I DU PONT DE NEMOURS AND COMPANY, priority 2013, published 2015).

Tests used:
Assay in all cases: Test C postemergence
galium = format: in vivo, Galium aparine
How it was run: (§1)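 Visual control ratings on a 0–100 scale (100 = complete control) made against untreated controls after 13 to 15 days in greenhouse. Compounds applied in surfactant-containing solvent mixture, either preemergence to loam/sand-sown seeds or postemergence to 1- to 4-leaf plants (2–18 cm) in peat medium.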

velvetleaf = format: in vivo, Abutilon theophrasti
How it was run: as §1

kochia = format: in vivo, Kochia scoparia
How it was run: as §1

corn = format: in vivo, Zea mays
Excerpt: (§2) Seeds of plant species selected from blackgrass (Alopecurus myosuroides), ryegrass, Italian (Italian ryegrass, Lolium multiflorum), wheat (winter wheat, Triticum aestivum), galium (catchweed bedstraw, Galium aparine), corn (Zea mays), crabgrass, large (large crabgrass, Digitaria sanguinalis), foxtail, giant (giant foxtail, Setaria faberii), johnsongrass (Sorghum halepense), lambsquarters (Chenopodium album), morningglory (Ipomoea coccinea), nutsedge, yellow (yellow nutsedge, Cyperus esculentus), pigweed (redroot pigweed, Amaranthus retroflexus), ragweed (common ragweed, Ambrosia elation), soybean (Glycine max), barnyardgrass (Echinochloa crus-galli), oilseed rape (Brassica napus), waterhemp (common waterhemp, Amaranthus rudis), oat, wild (wild oat, Avena fatua), kochia (Kochia scoparia), Surinam grass (Brachiaria decumbens), foxtail, green (green foxtail, Setaria viridis), goosegrass (Eleusine indica), bromegrass, downy (downy bromegrass, Bromus tectorum), nightshade (eastern black nightshade, Solanum ptycanthum), cocklebur (common cocklebur, Xanthium strumarium), cupgrass, woolly (woolly cupgrass, Eriochloa villosa), bermudagrass (Cynodon dactylon), sunflower, (common oilseed sunflower, Helianthus annuus), Russian thistle (Salsola kali), and velvetleaf (Abutilon theophrasti) were planted into a blend of loam soil and sand and treated preemergence with test chemicals formulated in a non-phytotoxic solvent mixture which included a surfactant.
(§3) At the same time, plants selected from these crop and weed species and also chickweed (common chickweed, Stellaria media), canarygrass (littleseed canarygrass, Phalaris minor), and deadnettle (henbit deadnettle, Lamium amplexicaule), were planted in pots containing Redi-Earth® planting medium (Scotts Company, 14111 Scottslawn Road, Marysville, Ohio 43041) comprising spaghnum peat moss, vermiculite, wetting agent and starter nutrients and treated with postemergence applications of test chemicals formulated in the same manner. Plants ranged in height from 2 to 18 cm (1- to 4-leaf stage) for postemergence treatments. Treated plants and controls were maintained in a greenhouse for 13 to 15 days, after which time all species were compared to controls and visually evaluated. Plant response ratings, summarized in Table C, are based on a scale of 0 to 100 where 0 is no effect and 100 is complete control. A dash (-) response means no test result.

ryegrass, Italian = format: in vivo, Lolium multiflorum
How it was run: as §1

waterhemp = format: in vivo, Amaranthus rudis
Excerpt: as §2, §3

blackgrass = format: in vivo, Alopecurus myosuroides
How it was run: as §1

johnsongrass = format: in vivo, Sorghum halepense
Excerpt: as §2, §3

crabgrass, large = format: in vivo, Digitaria sanguinalis
How it was run: as §1

foxtail, giant = format: in vivo, Setaria faberii
Excerpt: as §2, §3

ragweed = format: in vivo, Ambrosia elation
Excerpt: as §2, §3

soybean = format: in vivo, Glycine max
How it was run: as §1

morningglory = format: in vivo, Ipomoea coccinea
How it was run: as §1

chickweed = format: in vivo, Stellaria media
How it was run: as §1

nutsedge, yellow = format: in vivo, Cyperus esculentus
Excerpt: as §2, §3

oat, wild = format: in vivo, Avena fatua
How it was run: as §1

pigweed = format: in vivo, Amaranthus retroflexus
Excerpt: as §2, §3

oilseed rape = format: in vivo, Brassica napus
How it was run: as §1

[1] = Postemergence, 31 g ai/ha, visually evaluated after 13 to 15 days
[2] = postemergence, 62 g ai/ha, scale 0 to 100
[3] = postemergence, 125 g ai/ha, scale 0 to 100, 0 no effect, 100 complete control

## CCc1cc(C(=O)NOC(C)C)nn1Cc1ccnc(C(F)(F)F)c1 [Compound 101]
galium; Postemergence, 16 g ai/ha
  Plant response rating (scale of 0 to 100), Galium: 20
galium; [1]
  Plant response rating (scale of 0 to 100 where 0 is no effect and 100 is complete control), Galium: 35
galium; [2]
  Galium plant response rating: 50
galium; [3]
  Plant response rating, Galium: 55
velvetleaf; Postemergence, 16 g ai/ha
  Plant response rating (scale of 0 to 100), Velvetleaf: 10
velvetleaf; [1]
  Plant response rating (scale of 0 to 100 where 0 is no effect and 100 is complete control), Velvetleaf: 15
velvetleaf; [2]
  Velvetleaf plant response rating: 25
velvetleaf; [3]
  Plant response rating, Velvetleaf: 30
kochia; Postemergence, 16 g ai/ha
  Plant response rating (scale of 0 to 100), Kochia: 40
kochia; [1]
  Plant response rating (scale of 0 to 100 where 0 is no effect and 100 is complete control), Kochia: 60
kochia; [2]
  Kochia plant response rating: 65
kochia; [3]
  Plant response rating, Kochia: 65
corn; Postemergence, 16 g ai/ha
  Plant response rating (scale of 0 to 100), Corn: 5
corn; [1]
  Plant response rating (scale of 0 to 100 where 0 is no effect and 100 is complete control), Corn: 10
corn; [2]
  Corn plant response rating: 10
corn; [3]
  Plant response rating, Corn: 60
ryegrass, Italian; Postemergence, 16 g ai/ha
  Plant response rating (scale of 0 to 100), Ryegrass, Italian: 5
ryegrass, Italian; [1]
  Plant response rating (scale of 0 to 100 where 0 is no effect and 100 is complete control), Ryegrass, Italian: 5
ryegrass, Italian; [2]
  Ryegrass, Italian plant response rating: 5
ryegrass, Italian; [3]
  Plant response rating, Ryegrass, Italian: 10
waterhemp; Postemergence, 16 g ai/ha
  Plant response rating (scale of 0 to 100), Waterhemp: 10
waterhemp; [1]
  Plant response rating (scale of 0 to 100 where 0 is no effect and 100 is complete control), Waterhemp: 30
waterhemp; [2]
  Waterhemp plant response rating: 35
waterhemp; [3]
  Plant response rating, Waterhemp: 75
blackgrass; Postemergence, 16 g ai/ha
  Plant response rating (scale of 0 to 100), Blackgrass: 5
blackgrass; [1]
  Plant response rating (scale of 0 to 100 where 0 is no effect and 100 is complete control), Blackgrass: 5
blackgrass; [2]
  Blackgrass plant response rating: 5
blackgrass; [3]
  Plant response rating, Blackgrass: 15
johnsongrass; Postemergence, 16 g ai/ha
  Plant response rating (scale of 0 to 100), Johnsongrass: 0
johnsongrass; [1]
  Plant response rating (scale of 0 to 100 where 0 is no effect and 100 is complete control), Johnsongrass: 5
johnsongrass; [2]
  Johnsongrass plant response rating: 5
johnsongrass; [3]
  Plant response rating, Johnsongrass: 5
crabgrass, large; Postemergence, 16 g ai/ha
  Plant response rating (scale of 0 to 100), Crabgrass, Large: 5
crabgrass, large; [1]
  Plant response rating (scale of 0 to 100 where 0 is no effect and 100 is complete control), Crabgrass, Large: 5
crabgrass, large; [2]
  Crabgrass, Large plant response rating: 15
crabgrass, large; [3]
  Plant response rating, Crabgrass, Large: 20
foxtail, giant; Postemergence, 16 g ai/ha
  Plant response rating (scale of 0 to 100), Foxtail, Giant: 10
foxtail, giant; [1]
  Plant response rating (scale of 0 to 100 where 0 is no effect and 100 is complete control), Foxtail, Giant: 10
foxtail, giant; [2]
  Foxtail, Giant plant response rating: 30
foxtail, giant; [3]
  Plant response rating, Foxtail, Giant: 65
ragweed; Postemergence, 16 g ai/ha
  Plant response rating (scale of 0 to 100), Ragweed: 15
ragweed; [1]
  Plant response rating (scale of 0 to 100 where 0 is no effect and 100 is complete control), Ragweed: 15
ragweed; [2]
  Ragweed plant response rating: 20
ragweed; [3]
  Plant response rating, Ragweed: 75
soybean; Postemergence, 16 g ai/ha
  Plant response rating (scale of 0 to 100), Soybean: 15
soybean; [1]
  Plant response rating (scale of 0 to 100 where 0 is no effect and 100 is complete control), Soybean: 20
soybean; [2]
  Soybean plant response rating: 25
soybean; [3]
  Plant response rating, Soybean: 40
morningglory; Postemergence, 16 g ai/ha
  Plant response rating (scale of 0 to 100), Morningglory: 60
morningglory; [1]
  Plant response rating (scale of 0 to 100 where 0 is no effect and 100 is complete control), Morningglory: 60
morningglory; [2]
  Morningglory plant response rating: 65
morningglory; [3]
  Plant response rating, Morningglory: 95
chickweed; Postemergence, 16 g ai/ha
  Plant response rating (scale of 0 to 100), Chickweed: 45
chickweed; [1]
  Plant response rating (scale of 0 to 100 where 0 is no effect and 100 is complete control), Chickweed: 50
chickweed; [2]
  Chickweed plant response rating: 50
chickweed; [3]
  Plant response rating, Chickweed: 50
nutsedge, yellow; Postemergence, 16 g ai/ha
  Plant response rating (scale of 0 to 100), Nutsedge, Yellow: 5
nutsedge, yellow; [1]
  Plant response rating (scale of 0 to 100 where 0 is no effect and 100 is complete control), Nutsedge, Yellow: 5
nutsedge, yellow; [2]
  Nutsedge, Yellow plant response rating: 5
nutsedge, yellow; [3]
  Plant response rating, Nutsedge, Yellow: 40
oat, wild; Postemergence, 16 g ai/ha
  Plant response rating (scale of 0 to 100), Oat, Wild: 0
oat, wild; [1]
  Plant response rating (scale of 0 to 100 where 0 is no effect and 100 is complete control), Oat, Wild: 0
oat, wild; [2]
  Oat, Wild plant response rating: 5
oat, wild; [3]
  Plant response rating, Oat, Wild: 10
pigweed; Postemergence, 16 g ai/ha
  Plant response rating (scale of 0 to 100), Pigweed: 20
pigweed; [1]
  Plant response rating (scale of 0 to 100 where 0 is no effect and 100 is complete control), Pigweed: 35
pigweed; [2]
  Pigweed plant response rating: 45
pigweed; [3]
  Plant response rating, Pigweed: 75
Oilseed rape; Postemergence, 16 g ai/ha
  Plant response rating (scale of 0 to 100), Oilseed Rape: 5
Oilseed rape; [1]
  Plant response rating (scale of 0 to 100 where 0 is no effect and 100 is complete control), Oilseed Rape: 5
Oilseed rape; [2]
  Oilseed Rape plant response rating: 5
Oilseed rape; [3]
  Plant response rating, Oilseed Rape: 5
